Source: patent publication EP4056546A1, “ALIPHATIC 18F-RADIOLABELING OF A TETRAZINE PRECURSOR” (University of Copenhagen, priority 2021, dated 2022)

Assays:
[1] = Reaction kinetics measurement: second-order rate constants of tetrazines with TCO (stopped-flow photometer, pseudo-first-order); assay type: physicochemical; conditions: Second order rate constants with TCO at 37 °C in PBS
Protocol: Reaction kinetics of tetrazines with standard TCO were determined using pseudo-first-order measurements with an excess of the TCO compound in PBS (pH = 7.4) at 37.0 ± 0.1 °C following the decrease of tetrazine absorbance at 535 nm. Measurements were performed in triplicates using an SX20 stopped-flow photometer (Applied Photophysics, UK) equipped with a 535 nm LED light source. Data analysis was performed using Prism 6 (Graphpad) to determine the observed rate constants which were converted into secondorder rate constants through dividing by the TCO concentration.
Second-order rate constants for the reaction with TCO in PBS at 37 °C were determined by pseudo-first order measurements in a SX20 stopped flow photometer (Applied Photophysics).

[2] = Bench stability by analytical HPLC; assay type: physicochemical
From the text: The stability of [^18F]13 and it precursor (28) was investigated by analytical HPLC.

[3] = Tetrazine core reactivity test with TCO-PNP (analytical HPLC); assay type: physicochemical; conditions: after 4 hours at r.t.
Protocol: The reaction between [^18F]13 TCO-PNP was performed by mixing the formulated [^18F]13 (200 µL) with 5 µL of the commercially available TCO-PNP ester dissolved in DMF (5 mg/mL) in an analytical HPLC vial. […]

[4] = test system: CC49-TCO; test: Pretargeted PET/CT imaging in LS174T tumor xenograft bearing mice; assay type: in vivo, Balb/c nude mice
Protocol: The ability of [^18F]13 to be used as a pretargeting imaging agent was evaluated using a similar pretargeted setup that was used for the ex vivo blocking study in example 7. Mice were administered with CC49-TCO 72 h prior to administration of [^18F]13 where after PET/CT scanning was performed 1 h later. Control animals were injected with unconjugated mAb CC49 instead of CC49-TCO, but were otherwise treated exactly the same. After PET/CT scanning, animals were euthanized and an ex vivo biodistribution performed. […] The tumor uptake was clearly visible. A tumor-to-muscle (T/M) ratio of 20.1 and a tumor-to-blood (T/B) ratio of 1.2 from the image derived data (heart uptake used as surrogate for blood uptake) was determined. The relatively low T/B ratio is likely due to ligation of [^18F]13 with remnant CC49-TCO still circulating in the blood. Clearance of CC49-TCO from blood will most likely increase the ratio drastically. Uptake in tissues beside tumor and blood was low. […]
Pretargeted imaging of [^18F]13 as tested in vivo using the TAG-72 targeting antibody CC49 in human colorectal cancer xenograft tumors LS174T. […] The radioactivity in the tissues were determined using a gamma counter (Wizard^2, Perkin Elmer). Data was corrected for decay, tissue weight and the injected dose of radioactivity. […] Statistical difference between mean %ID/g values were analyzed using Welch's T-test. […]

## O=C(O)C(F)(F)F.O=C(O)CN(CCF)Cc1cc(F)cc(-c2nncnn2)c1 [Compound 9, N-(carboxymethyl)-2-fluoro-N-(3-fluoro-5-(1,2,4,5-tetrazin-3-yl)benzyl)ethanaminium 2,2,2-trifluoroacetate]
[1]
  Rate constant: 87722 M⁻¹ s⁻¹

## O=C(O)C(F)(F)F.O=C(O)CN(CCF)Cc1cccc(-c2nncnn2)c1 [Compound 10, N-(3-(1,2,4,5-tetrazin-3-yl)benzyl)-N-(carboxymethyl)-2-fluoroethanaminium 2,2,2-trifluoroacetate]
[1]
  Rate constant: 62464 M⁻¹ s⁻¹

## O=C(O)C(F)(F)F.O=C(O)CN(CCF)Cc1ccc(-c2nncnn2)cc1F [Compound 11, N-(carboxymethyl)-2-fluoro-N-(2-fluoro-4-(1,2,4,5-tetrazin-3-yl)benzyl)ethanaminium 2,2,2-trifluoroacetate]
[1]
  Rate constant: 74592 M⁻¹ s⁻¹

## O=C(O)C(F)(F)F.O=C(O)CN(CCF)Cc1ccc(-c2nncnn2)cc1 [Compound 12, N-(4-(1,2,4,5-tetrazin-3-yl)benzyl)-N-(carboxymethyl)-2-fluoroethanaminium 2,2,2-trifluoroacetate]
[1]
  Rate constant: 54999 M⁻¹ s⁻¹

## O=C(O)C(F)(F)F.O=C(O)CN(CC(=O)O)Cc1ccc(-c2nncnn2)cc1OCCF [Compound 13, 1-Carboxy-N-(carboxymethyl)-N-(2-(2-fluoroethoxy)-4-(1,2,4,5-tetrazin-3-yl)benzyl) methanaminium 2,2,2-trifluoroacetate]
[1]
  Rate constant: 68478 M⁻¹ s⁻¹

## CC(C)(C)OC(=O)CN(CC(=O)OC(C)(C)C)Cc1ccc(-c2nncnn2)cc1OCCOS(=O)(=O)c1ccc([N+](=O)[O-])cc1 [Compound 28, Di-tert-butyl 2,2'-((2-(2-(((4-nitrophenyl)sulfonyl)oxy)ethoxy)-4-(1,2,4,5-tetrazin-3-yl)benzyl)azanediyl)diacetate]
[2]; bench stability, analytical HPLC
  stability of the precursor: decomposed over time
[2]; dissolved (25 mg/mL) in DMSO and frozen at -20 °C
  stability of the precursor (time stable): at least 3 months
[2]; stored at -20 °C as a solid
  stability of the precursor (time stable): ≥ 3 months

## O=C(O)CN(CC(=O)O)Cc1ccc(-c2nncnn2)cc1OCC[18F] [[^18F]13]
[2]; after 4 hours, Figure 5A
  Stability at r.t. over 4 hours: no signs of decomposition
[2]; analytical HPLC, r.t.
  stability (time stable): at least 4 hours
[3]
  ability to react with TCO-PNP: still able to react quantitatively with TCO-PNP
[4]; PET imaging, Figure 6
  tumor-to-muscle ratio in comparison with [64Cu]Cu-NOTa-PEG7-H-Tz, [111In]Tz-Tg and ZZ: highest tumor-to-musle ratio
[4]; PET/CT 1 h p.i., CC49-TCO pretargeted
  Uptake in tissues beside tumor and blood: low
